Measurements as given in patent EP0540099A1, “Water soluble camptothecin derivatives” (priority 1991, dated 1993).

Tested on: HT-29 human colon tumor cells
Test: Human colorectal adenocarcinoma HT-29 xenograft in vivo assay
Conditions: female NU/NU mice; for in vivo Antitumor activity (tumor wt day-50/tumor wt day-14): HT-29 s.c. xenograft, optimal dose, subcutaneously twice a week for 5 weeks from day 14; for effect on tumor (stasis or regression): HT-29 xenograft, after 5 weeks of treatment (day 50), ratio of 1 = stasis, less than 1 = regression
Procedure: Female NU/NU mice weighing 21 ± 2g, are used for this modified version of the test described by B.C. Giovanella, et al., Science, 246 1046 (1989). Control and test animals are injected subcutaneously in the sub-scapular region with a suspension of 10⁶ viable HT-29 human colon tumor cells on day 0. Tumors are allowed to grow for 2 weeks prior to drug administration. For each drug, several doses are chosen based on its in vitro activity against topoisomerase I. Each dose level group contains 8 animals. The test compounds are prepared in either 0.1 M acetate buffer, pH 5 (vehicle "a") or 87.5% phosphate buffered saline, 12.375% dimethylsulfoxide, and 0.125% Tween 80 (trademark of ICI America for polyoxyethylenesorbitan monooleate) (vehicle "b") and are administered subcutaneously twice a week for 5 weeks beginning on day 14. Doses are given on a mg/kg basis according to the mean body weight for each cage.
Tumor weight is calculated from two perpendicular caliper measurements of the tumor using the formula, tumor weight = length x width² ÷ 2 [formula] in millimeters. For each animal, tumor weight is monitored over the course of the experiment. For each group, the results are expressed as the ratio of the mean tumor weight immediately after 5 weeks of treatment (day 50) divided by the mean tumor weight immediately before treatment (day 14). […] The criterion for antitumor activity is at least 50% inhibition of tumor growth after 5 weeks of dosing (day 50), giving a ratio of less than or equal to ten. TABLE B

[1] = vehicle b: 87.5% phosphate buffered saline, 12.375% dimethylsulfoxide, 0.125% Tween 80
[2] = vehicle a: 0.1 M acetate buffer, pH 5

Row | Compound | in vivo Antitumor activity (tumor wt day-50/tumor wt day-14) [1] | effect on tumor (stasis or regression) | in vivo Antitumor activity (tumor wt day-50/tumor wt day-14) [2]
1 | CC[C@@]1(O)C(=O)OCc2c1cc1n(c2=O)Cc2c-1nc1cc3c(cc1c2CN(C)C)OCO3 [Example 2, 7-Dimethylaminomethylene-10, 11-methylenedioxy-20(S)-camptothecin] | 1.8^b |  | 
2 | CC[C@@]1(O)C(=O)OCc2c1cc1n(c2=O)Cc2c-1nc1cc3c(cc1c2CN(C)C)OCCO3 [Example 4, 7-Dimethylaminomethylene-10, 11-ethylenedioxy-20(S)-camptothecin] |  | tumor stasis | 
3 | CC[C@@]1(O)C(=O)OCc2c1cc1n(c2=O)Cc2c-1nc1cc3c(cc1c2CN1CCOCC1)OCCO3 [Example 6, 7-Morpholinomethylene-10, 11-ethylenedioxy-20(S)-camptothecin] | 1.0^b | tumor stasis | 
4 | CC[C@@]1(O)C(=O)OCc2c1cc1n(c2=O)Cc2c-1nc1cc3c(cc1c2CN1CCN(C)CC1)OCCO3 [Example 11, 7-(4-methylpiperazinomethylene)-10, 11-ethylenedioxy-20(S)-camptothecin] |  | tumor regression | 0.6^a
5 | CCN(CC)Cc1c2c(nc3cc4c(cc13)OCCO4)-c1cc3c(c(=O)n1C2)COC(=O)[C@]3(O)CC [Example 14, 7-Diethylaminomethylene-10, 11-ethylenedioxy-20(S)-camptothecin] |  |  | 2.0^a
6 | CC[C@@]1(O)C(=O)OCc2c1cc1n(c2=O)Cc2c-1nc1cc3c(cc1c2CN1CCC1)OCO3 [Example 20, 7-Azetidinomethylene-10, 11-methylenedioxy-20(S)-camptothecin] |  |  | 1.5^a
7 | CC[C@@]1(O)C(=O)OCc2c1cc1n(c2=O)Cc2c-1nc1cc3c(cc1c2CN1CCC1)OCCO3 [Example 22, 7-Azetidinomethylene-10, 11-ethylenedioxy-20(S)-camptothecin] |  |  | 1.6^a
8 | CC[C@@]1(O)C(=O)OCc2c1cc1n(c2=O)Cc2c-1nc1cc3c(cc1c2CN1CCN(C)CC1)OCO3 [Example 23, 7-(4-Methylpiperazinomethylene)-10, 11-methylenedioxy-20(S)-camptothecin] |  | tumor regression | 0.5^a
